# Data as given in ChEMBL document CHEMBL2321822, “Synthesis and biological evaluation of 1-(6-methylpyridin-2-yl)-5-(quinoxalin-6-yl)-1,2,3-triazoles as transforming growth factor-β type 1 receptor kinase inhibitors” (Bioorg Med Chem Lett, 2013).
# Legend:
# [1] = molecular target: Mitogen-activated protein kinase 14 (Homo sapiens) (UniProt Q16539); test: Inhibition of human P38alpha/MAPK at 10 uM in presence of 1 microM ATP
# [2] = molecular target: T1, TGF-beta receptor type-1 (Homo sapiens) (UniProt P36897); test: Inhibition of human ALK5 at 10 uM in presence of 1 microM ATP relative to control
# T1 sequence (whole entry): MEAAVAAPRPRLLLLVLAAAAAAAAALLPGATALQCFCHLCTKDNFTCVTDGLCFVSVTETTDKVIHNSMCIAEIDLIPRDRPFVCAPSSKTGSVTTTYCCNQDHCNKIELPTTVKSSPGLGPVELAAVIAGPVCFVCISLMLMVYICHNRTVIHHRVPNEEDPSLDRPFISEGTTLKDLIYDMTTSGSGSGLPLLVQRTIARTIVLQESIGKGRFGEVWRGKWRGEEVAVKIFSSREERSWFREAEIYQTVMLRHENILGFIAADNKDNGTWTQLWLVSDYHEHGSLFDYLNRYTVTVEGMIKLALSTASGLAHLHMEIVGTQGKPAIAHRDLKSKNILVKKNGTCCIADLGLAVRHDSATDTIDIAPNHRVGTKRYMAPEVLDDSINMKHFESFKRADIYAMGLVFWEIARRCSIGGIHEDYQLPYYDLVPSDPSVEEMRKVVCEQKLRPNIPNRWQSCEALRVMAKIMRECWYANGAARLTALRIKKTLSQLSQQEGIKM
# [3] = molecular target: T2, TGF-beta receptor type-1 (Homo sapiens, UniProt P36897); test: Inhibition of human ALK5 in presence of 1 microM ATP
# T2 sequence (P36897 whole entry): T1 sequence (whole entry)
# Mitogen-activated protein kinase 14 (Homo sapiens), sequence (Q16539 whole entry): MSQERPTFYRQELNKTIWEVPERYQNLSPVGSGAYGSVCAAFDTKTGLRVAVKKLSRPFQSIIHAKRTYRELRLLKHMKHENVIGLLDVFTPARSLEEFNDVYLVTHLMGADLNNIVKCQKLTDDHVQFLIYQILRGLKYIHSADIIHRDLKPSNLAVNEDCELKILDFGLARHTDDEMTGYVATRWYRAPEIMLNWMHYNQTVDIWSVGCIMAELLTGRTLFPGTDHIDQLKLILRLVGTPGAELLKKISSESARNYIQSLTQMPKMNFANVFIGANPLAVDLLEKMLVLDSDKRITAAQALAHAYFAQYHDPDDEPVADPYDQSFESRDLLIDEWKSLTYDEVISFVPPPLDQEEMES
Structure (SMILES),inhibition [1] [%],inhibition [2] [%],IC50 [3] [µM]
Cc1cccc(-n2nnc(-c3cc(F)cc(F)c3)c2-c2ccc3nccnc3c2)n1,40.4,17.4,–
Cc1cccc(-n2nnc(CCCCO)c2-c2ccc3nccnc3c2)n1,–,20.4,50.8
CCCCc1nnn(-c2cccc(C)n2)c1-c1ccc2nccnc2c1,-2.52,70,7.38
Cc1cccc(-n2nnc(Cc3ccccc3)c2-c2ccc3nccnc3c2)n1,-1.94,80.8,4.69
COc1cc(OC)cc(-c2nnn(-c3cccc(C)n3)c2-c2ccc3nccnc3c2)c1,-6.87,23.4,–
Cc1cccc(-n2nnc(CCC(C)C)c2-c2ccc3nccnc3c2)n1,-5.91,73.1,8.6

# Continued, values first:
inhibition [1] [%],inhibition [2] [%],IC50 [3] [µM],Structure (SMILES)
31.2,-4.94,–,Cc1cccc(-n2nnc(-c3ccccc3)c2-c2ccc3nccnc3c2)n1
30.9,8.19,–,Cc1cccc(-n2nnc(-c3ccc(F)cc3)c2-c2ccc3nccnc3c2)n1
–,0.26,–,COc1ccc(-c2nnn(-c3cccc(C)n3)c2-c2ccc3nccnc3c2)cc1
18.4,34.9,34.5,COc1ccccc1-c1nnn(-c2cccc(C)n2)c1-c1ccc2nccnc2c1
-5.07,20.7,–,Cc1ccc(-c2nnn(-c3cccc(C)n3)c2-c2ccc3nccnc3c2)cc1
